Common to all, as to test: kinome screen (33PanQinase)
Common to all, as to format: biochemical

In one assay the target is T1, ROCK1 (Homo sapiens, UniProt Q13464).
T1 construct: purchased Reaction Biology Europe GmbH (formerly ProQinase)
On the procedure:
(§1) The Kinome Screening was performed by Reaction Biology Europe GmbH (http://reactionbiology.com; Freiburg i. Br., Germany).

A further assay addresses T2, SRMS (Homo sapiens, UniProt Q9H3Y6).
T2 construct: purchased Reaction Biology Europe GmbH (formerly ProQinase)
On the procedure: as §1

A further assay concerns the target T3, EPHA6 (Homo sapiens, UniProt Q9UF33).
T3 construct: purchased Reaction Biology Europe GmbH (formerly ProQinase)
T3 sequence (Q9UF33 23-1036): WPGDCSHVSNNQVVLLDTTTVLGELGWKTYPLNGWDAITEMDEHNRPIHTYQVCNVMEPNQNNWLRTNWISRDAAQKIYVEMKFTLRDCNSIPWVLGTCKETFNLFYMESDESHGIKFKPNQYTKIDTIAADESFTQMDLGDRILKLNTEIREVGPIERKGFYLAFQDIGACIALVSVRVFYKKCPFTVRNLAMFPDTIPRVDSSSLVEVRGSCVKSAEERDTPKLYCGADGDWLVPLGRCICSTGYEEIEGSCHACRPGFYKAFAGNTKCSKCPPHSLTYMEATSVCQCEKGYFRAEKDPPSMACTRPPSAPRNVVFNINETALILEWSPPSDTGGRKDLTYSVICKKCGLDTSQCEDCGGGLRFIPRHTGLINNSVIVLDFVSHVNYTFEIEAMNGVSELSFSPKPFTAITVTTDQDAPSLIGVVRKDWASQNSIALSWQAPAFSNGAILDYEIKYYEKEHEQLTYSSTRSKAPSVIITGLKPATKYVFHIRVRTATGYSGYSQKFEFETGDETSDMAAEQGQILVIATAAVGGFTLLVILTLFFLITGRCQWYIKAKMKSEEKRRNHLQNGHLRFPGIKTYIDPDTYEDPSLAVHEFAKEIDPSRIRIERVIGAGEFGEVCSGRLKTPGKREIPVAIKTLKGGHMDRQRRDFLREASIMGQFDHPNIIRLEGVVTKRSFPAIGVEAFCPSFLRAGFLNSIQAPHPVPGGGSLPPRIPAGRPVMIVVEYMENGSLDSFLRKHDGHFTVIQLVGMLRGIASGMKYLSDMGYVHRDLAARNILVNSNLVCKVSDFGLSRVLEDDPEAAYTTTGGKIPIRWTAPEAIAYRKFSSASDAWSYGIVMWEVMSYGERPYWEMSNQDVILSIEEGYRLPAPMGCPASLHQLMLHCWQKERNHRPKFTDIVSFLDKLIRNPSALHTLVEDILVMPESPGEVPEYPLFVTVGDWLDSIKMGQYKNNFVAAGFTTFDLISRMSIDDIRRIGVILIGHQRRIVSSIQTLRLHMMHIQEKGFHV
The procedure:
as §1

The target of the next assay is T4, NIK (Homo sapiens, UniProt Q99558).
T4 construct: purchased Reaction Biology Europe GmbH (formerly ProQinase)
T4 sequence (Q99558 whole entry): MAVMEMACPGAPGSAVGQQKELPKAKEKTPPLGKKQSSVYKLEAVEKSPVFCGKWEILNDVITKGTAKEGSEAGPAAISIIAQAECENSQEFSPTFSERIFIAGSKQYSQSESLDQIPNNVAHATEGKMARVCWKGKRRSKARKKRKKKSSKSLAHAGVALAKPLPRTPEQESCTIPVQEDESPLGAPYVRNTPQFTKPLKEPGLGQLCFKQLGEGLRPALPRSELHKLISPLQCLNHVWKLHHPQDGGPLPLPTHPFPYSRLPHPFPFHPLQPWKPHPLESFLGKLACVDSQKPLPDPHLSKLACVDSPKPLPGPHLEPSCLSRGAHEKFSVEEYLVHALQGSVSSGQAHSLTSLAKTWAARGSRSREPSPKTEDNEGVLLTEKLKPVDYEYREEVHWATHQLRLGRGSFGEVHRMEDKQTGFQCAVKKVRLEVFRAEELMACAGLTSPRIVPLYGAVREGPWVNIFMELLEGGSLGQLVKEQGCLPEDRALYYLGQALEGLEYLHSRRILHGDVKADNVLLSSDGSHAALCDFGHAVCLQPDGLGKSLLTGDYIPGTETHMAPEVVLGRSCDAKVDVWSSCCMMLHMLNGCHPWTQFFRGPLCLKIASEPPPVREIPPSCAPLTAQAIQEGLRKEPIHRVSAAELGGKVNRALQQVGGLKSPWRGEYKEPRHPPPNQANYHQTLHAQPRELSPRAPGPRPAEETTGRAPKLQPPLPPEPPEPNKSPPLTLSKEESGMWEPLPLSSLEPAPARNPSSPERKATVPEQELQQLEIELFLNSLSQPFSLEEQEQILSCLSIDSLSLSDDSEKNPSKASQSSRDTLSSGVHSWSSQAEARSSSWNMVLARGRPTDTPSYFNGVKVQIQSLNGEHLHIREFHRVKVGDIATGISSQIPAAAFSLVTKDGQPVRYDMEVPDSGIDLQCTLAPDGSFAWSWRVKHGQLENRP
On the procedure:
as §1

Another assay addresses T5, PYK2 (Homo sapiens, UniProt Q14289).
T5 construct: purchased Reaction Biology Europe GmbH (formerly ProQinase)
On the procedure:
as §1

The next assay addresses T6, TTBK1 (Homo sapiens, UniProt Q5TCY1).
T6 construct: purchased Reaction Biology Europe GmbH (formerly ProQinase)
The procedure: as §1

The next assay addresses T7, LTK (Homo sapiens, UniProt P29376).
T7 construct: purchased Reaction Biology Europe GmbH (formerly ProQinase)
The procedure: as §1

For another assay, the target named is T8, p38Δ (Homo sapiens, UniProt O15264).
T8 construct: purchased Reaction Biology Europe GmbH (formerly ProQinase)
T8 sequence (O15264 1-365): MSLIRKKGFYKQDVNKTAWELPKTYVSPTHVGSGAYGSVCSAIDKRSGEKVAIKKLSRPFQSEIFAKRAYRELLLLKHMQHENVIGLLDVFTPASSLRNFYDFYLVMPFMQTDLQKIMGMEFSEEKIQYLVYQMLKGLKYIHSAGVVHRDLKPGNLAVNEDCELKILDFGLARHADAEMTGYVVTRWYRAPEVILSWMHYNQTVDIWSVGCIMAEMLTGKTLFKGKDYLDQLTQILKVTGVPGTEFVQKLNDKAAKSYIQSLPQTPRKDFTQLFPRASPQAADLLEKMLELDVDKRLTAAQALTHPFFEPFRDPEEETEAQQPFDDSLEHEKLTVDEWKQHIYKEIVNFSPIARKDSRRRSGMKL
The procedure:
as §1

In the next assay the target is T9, CLK4 (Homo sapiens, UniProt Q9HAZ1).
T9 construct: purchased Reaction Biology Europe GmbH (formerly ProQinase)
T9 sequence (Q9HAZ1 whole entry): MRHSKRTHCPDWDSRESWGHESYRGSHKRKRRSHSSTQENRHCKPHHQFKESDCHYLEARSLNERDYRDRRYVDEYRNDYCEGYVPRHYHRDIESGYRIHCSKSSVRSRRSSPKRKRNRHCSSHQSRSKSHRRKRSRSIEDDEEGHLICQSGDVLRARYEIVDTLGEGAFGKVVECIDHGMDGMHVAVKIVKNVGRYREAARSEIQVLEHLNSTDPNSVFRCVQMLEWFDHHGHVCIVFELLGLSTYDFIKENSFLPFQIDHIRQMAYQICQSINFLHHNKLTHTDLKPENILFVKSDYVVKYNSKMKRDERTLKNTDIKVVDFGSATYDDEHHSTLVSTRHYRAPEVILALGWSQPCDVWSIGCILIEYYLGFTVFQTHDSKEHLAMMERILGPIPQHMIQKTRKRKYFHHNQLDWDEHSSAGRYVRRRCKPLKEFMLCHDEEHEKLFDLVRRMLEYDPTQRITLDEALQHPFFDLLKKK
On the procedure: as §1

The target in a further assay is T10, CK1α1 (Homo sapiens, UniProt P48729).
T10 construct: purchased Reaction Biology Europe GmbH (formerly ProQinase)
T10 sequence (P48729 whole entry): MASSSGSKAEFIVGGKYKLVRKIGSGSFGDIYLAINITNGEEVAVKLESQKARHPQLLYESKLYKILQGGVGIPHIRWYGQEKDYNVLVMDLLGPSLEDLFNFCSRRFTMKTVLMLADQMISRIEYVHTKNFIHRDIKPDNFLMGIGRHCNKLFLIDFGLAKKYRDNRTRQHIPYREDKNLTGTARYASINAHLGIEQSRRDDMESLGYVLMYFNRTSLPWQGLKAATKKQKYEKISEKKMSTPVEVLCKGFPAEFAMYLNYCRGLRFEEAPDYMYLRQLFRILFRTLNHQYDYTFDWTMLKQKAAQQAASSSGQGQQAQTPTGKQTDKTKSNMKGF
On the procedure:
as §1

The target in the next assay is T11, DMPK (Homo sapiens, UniProt Q09013).
T11 construct: purchased Reaction Biology Europe GmbH (formerly ProQinase)
T11 sequence (Q09013 1-629): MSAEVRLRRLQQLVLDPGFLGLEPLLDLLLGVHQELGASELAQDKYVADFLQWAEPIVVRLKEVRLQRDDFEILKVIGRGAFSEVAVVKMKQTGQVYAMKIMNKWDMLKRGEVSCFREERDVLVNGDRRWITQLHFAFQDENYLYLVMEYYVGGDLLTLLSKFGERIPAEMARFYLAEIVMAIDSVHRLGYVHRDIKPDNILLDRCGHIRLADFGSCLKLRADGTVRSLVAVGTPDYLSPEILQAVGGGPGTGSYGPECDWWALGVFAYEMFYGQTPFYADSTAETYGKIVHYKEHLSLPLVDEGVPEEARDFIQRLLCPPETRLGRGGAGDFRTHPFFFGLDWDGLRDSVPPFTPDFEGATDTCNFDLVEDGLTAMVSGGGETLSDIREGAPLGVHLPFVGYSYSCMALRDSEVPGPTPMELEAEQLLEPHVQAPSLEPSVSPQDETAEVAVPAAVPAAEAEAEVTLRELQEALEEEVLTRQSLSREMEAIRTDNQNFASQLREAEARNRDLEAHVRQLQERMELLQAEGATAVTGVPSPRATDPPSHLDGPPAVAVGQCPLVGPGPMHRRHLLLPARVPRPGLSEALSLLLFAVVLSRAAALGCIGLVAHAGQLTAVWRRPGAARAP
On the procedure:
as §1

T1 sequence (Q13464 whole entry): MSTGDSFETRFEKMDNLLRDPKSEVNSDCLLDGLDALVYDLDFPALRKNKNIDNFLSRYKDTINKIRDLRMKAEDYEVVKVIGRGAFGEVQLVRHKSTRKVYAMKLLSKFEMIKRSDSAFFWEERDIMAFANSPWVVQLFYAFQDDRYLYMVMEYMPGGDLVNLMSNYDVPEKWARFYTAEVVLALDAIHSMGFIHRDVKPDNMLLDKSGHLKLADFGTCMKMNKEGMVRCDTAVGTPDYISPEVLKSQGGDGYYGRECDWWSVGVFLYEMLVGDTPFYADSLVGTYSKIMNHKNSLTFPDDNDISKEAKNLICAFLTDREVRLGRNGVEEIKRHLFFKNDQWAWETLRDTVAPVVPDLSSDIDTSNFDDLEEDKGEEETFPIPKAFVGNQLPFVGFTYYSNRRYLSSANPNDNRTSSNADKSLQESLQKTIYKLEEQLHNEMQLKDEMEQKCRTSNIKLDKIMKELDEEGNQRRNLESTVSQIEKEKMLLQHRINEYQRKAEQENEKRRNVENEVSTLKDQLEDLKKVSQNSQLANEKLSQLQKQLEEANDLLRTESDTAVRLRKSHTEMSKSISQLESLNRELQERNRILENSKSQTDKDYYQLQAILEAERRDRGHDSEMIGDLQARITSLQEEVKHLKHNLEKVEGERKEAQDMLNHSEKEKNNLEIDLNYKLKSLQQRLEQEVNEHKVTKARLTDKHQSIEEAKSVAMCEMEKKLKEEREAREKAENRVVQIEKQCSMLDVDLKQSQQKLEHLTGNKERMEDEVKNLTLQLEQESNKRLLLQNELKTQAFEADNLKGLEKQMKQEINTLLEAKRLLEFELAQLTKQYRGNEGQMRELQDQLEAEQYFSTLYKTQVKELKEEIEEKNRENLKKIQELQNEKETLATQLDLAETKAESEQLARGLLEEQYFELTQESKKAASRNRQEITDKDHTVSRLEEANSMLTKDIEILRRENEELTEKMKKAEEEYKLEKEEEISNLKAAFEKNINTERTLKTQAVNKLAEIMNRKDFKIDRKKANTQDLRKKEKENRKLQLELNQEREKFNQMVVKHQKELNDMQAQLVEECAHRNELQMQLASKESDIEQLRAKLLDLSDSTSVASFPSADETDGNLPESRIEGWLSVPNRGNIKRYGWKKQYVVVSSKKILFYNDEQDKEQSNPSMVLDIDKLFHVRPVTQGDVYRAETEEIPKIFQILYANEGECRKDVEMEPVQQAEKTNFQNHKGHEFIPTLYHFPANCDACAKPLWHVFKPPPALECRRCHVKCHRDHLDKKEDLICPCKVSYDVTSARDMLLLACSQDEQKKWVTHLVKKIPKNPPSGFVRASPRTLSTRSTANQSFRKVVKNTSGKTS
T5 sequence (Q14289 whole entry): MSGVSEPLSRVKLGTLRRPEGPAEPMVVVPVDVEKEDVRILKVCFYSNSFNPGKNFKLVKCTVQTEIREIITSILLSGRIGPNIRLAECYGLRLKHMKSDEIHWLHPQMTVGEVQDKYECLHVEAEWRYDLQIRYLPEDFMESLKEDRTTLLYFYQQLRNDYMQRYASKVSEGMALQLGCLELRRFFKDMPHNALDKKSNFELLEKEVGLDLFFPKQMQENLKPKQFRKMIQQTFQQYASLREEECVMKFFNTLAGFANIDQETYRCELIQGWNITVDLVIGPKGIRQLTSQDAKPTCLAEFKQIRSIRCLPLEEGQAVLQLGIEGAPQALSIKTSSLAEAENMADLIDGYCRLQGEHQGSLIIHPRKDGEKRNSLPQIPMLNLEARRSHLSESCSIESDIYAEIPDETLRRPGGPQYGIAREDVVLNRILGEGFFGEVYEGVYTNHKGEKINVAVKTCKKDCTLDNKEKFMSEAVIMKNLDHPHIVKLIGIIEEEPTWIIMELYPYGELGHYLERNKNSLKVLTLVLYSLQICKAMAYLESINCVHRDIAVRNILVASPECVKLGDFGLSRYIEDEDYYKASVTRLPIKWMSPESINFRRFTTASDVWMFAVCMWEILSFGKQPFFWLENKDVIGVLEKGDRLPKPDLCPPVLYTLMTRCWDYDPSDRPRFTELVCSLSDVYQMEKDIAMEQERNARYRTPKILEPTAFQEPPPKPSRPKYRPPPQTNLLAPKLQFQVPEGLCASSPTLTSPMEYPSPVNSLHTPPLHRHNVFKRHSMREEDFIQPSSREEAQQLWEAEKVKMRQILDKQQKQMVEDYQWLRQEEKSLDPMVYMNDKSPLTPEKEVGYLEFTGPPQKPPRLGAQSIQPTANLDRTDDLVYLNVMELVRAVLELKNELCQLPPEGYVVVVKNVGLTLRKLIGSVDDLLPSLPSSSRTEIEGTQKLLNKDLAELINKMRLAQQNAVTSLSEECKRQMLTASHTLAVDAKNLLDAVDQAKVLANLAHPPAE
T7 sequence (P29376 17-864): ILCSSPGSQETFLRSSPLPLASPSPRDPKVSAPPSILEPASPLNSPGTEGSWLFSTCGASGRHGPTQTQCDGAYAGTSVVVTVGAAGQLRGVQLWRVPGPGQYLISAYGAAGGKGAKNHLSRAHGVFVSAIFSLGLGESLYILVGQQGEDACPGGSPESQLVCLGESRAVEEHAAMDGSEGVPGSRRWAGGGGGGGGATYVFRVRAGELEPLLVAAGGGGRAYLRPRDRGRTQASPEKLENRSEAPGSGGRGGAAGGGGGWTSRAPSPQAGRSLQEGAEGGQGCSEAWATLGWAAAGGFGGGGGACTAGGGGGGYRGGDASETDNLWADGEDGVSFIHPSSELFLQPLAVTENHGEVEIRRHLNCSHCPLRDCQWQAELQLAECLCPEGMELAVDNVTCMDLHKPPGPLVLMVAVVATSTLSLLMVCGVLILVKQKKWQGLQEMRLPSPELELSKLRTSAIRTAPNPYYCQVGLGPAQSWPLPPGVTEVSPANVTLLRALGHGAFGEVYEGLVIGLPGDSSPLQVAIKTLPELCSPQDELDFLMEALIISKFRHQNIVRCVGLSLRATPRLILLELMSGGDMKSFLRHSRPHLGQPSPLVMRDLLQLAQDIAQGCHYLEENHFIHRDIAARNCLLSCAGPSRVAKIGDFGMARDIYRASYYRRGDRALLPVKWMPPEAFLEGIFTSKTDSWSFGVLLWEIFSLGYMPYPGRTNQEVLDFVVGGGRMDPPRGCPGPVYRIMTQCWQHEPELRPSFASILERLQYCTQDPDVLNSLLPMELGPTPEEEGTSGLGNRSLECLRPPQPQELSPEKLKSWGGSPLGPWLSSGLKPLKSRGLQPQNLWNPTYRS

On to `COc1ccnc2[nH]cc(-c3cc(N)nc(N)c3)c12` [meriolin 16], for which the residual kinase activity on ROCK1 (0.03 µM) is listed as 24 % of control; on ROCK1 (0.3 µM) it was 2 % of control; at SRMS (0.03 µM), 101 % of control; on SRMS (0.3 µM), 93 % of control; at EPHA6 (0.03 µM), 98 % of control; on EPHA6 (0.3 µM), 105 % of control. Moreover, the residual kinase activity on NIK (0.03 µM) is on record as 94 % of control; at NIK (0.3 µM), 79 % of control; at PYK2 (0.03 µM), 117 % of control; at PYK2 (0.3 µM), 102 % of control; at TTBK1 (0.03 µM), 116 % of control; at TTBK1 (0.3 µM) it was 108 % of control. Also, the residual kinase activity at LTK (0.03 µM) is listed as 110 % of control; on LTK (0.3 µM) it was 98 % of control; at p38Δ (0.03 µM), 79 % of control; on p38Δ (0.3 µM), 24 % of control; on CLK4 (0.03 µM), 3 % of control; on CLK4 (0.3 µM) it was 0 % of control. Moreover, the residual kinase activity at CK1α1 (0.03 µM) was 129 % of control; at CK1α1 (0.3 µM), 93 % of control; on DMPK (0.03 µM), 86 % of control; on DMPK (0.3 µM) it was 63 % of control.

Regarding `c1ccc(CNc2cc(-c3c[nH]c4ncccc34)ccn2)cc1` [meriolin 36], the residual kinase activity on ROCK1 (0.3 µM) was 1 % of control; at ROCK1 (3 µM) it was 1 % of control; on SRMS (0.3 µM) it was 93 % of control; on SRMS (3 µM), 73 % of control; on EPHA6 (0.3 µM), 101 % of control; on EPHA6 (3 µM) it was 65 % of control. Further, the residual kinase activity at NIK (0.3 µM) is 59 % of control; on NIK (3 µM) it was 33 % of control; on PYK2 (0.3 µM) it was 73 % of control; on PYK2 (3 µM), 24 % of control; at TTBK1 (0.3 µM), 101 % of control; at TTBK1 (3 µM), 77 % of control. The residual kinase activity on LTK (0.3 µM) is 46 % of control; at LTK (3 µM), 11 % of control; at p38Δ (0.3 µM), 59 % of control; at p38Δ (3 µM) it was 14 % of control; on CLK4 (0.3 µM), 1 % of control; at CLK4 (3 µM), 1 % of control. Also, the residual kinase activity at CK1α1 (0.3 µM) is recorded as 110 % of control; at CK1α1 (3 µM), 51 % of control; at DMPK (0.3 µM) it was 3 % of control; at DMPK (3 µM), -2 % of control.

For the origin of these results see paper PMC11167047 (Cell Death Discovery, 2024).
